Consider five compounds from patent US10766862B2, “Crystal form and salt form of and preparation method for tyrosine kinase inhibitor” (GUANGDONG RAYNOVENT BIOTECH CO., LTD., priority 2016, dated 2020).

The term solubility denotes how much of the substance goes into solution per volume. Read a high solubility as much dissolved substance.

One data set can be described thus: physchem. The note with it: FeSSIF, pH 4.89, fessif, thermodynamic from solid.
Data set [1] can be described thus: Test of solubility of crystal form A and its salts in four medias (HPLC, 24 hr). To be noted: for Solubility (ug/mL)_24 hr: 24 hr stirring; for pH (24 hr): supernatant.
Experimental: (§1) Preparation of Control Solution (Crystal Form a as Control Sample)
(§2) Crystal form A was accurately weighed and added into a sample vial. 10 mL of acetonitrile was added, and subject to ultrasonic treatment for 5 min. The mixture was cooled to room temperature, and mixed homogeneously. Two aliquots were formulated in parallel, and labelled as STD-1 and STD-2, respectively.
Preparation of Linear Solution
(§3) The control solution STD-1 was gradually diluted 1×, 5×, 10×, 100×, and 1000×, and labelled as the linear solutions L1, L2, L3, L4, L5.
(§4) Test of Solubility of Crystal Form a and its Salts
(§5) The crystal form A and its salts were tested for their solubility in medias at 4 different pH values. About 10 mg of free base (10.8 mg of hydrochloride, 12.1 mg of methane sulfonate) was added into a glass vial. Four aliquots were weighed, 5.0 mL of individual media (water, SGF, FaSSIF, FeSSIF*) was added to each aliquot, respectively. The mixture was mixed homogeneously to for a suspension. A magnet was placed into the suspension, which was placed on a magnetic stirred for stirring. After 24 hours of stirred, a sample was taken and centrifugalized. The supernatant was detected by HPLC for its concentration and pH value.
Data set [2] is described as follows: Test of solid stability of crystal forms F, K and L. It counts as physicochemical. The procedure:
Test of Solid Stability of Crystal Form F (Hydrochloride), Crystal Form K (Methane Sulfonate) and Crystal Form L (Methane Sulfonate) […] About 5 mg of each crystal form was accurately weighed and placed in a glass vial. Two aliquots were taken as the sample for test under each condition and at each time point. One aliquot was taken as the sample for XRPD test under each condition and at each time point. The vials containing sample were sealed with aluminum foil, and the foil was pierced to form some holes thereon. Then, the samples were placed in constant temperature & humidity chambers under the conditions of 60° C./92.5% RH and 40° C./75% RH. [table] 2. Analysis of Sample of Solid Stability At the tested time point, the sample was taken out, capped, and stood to room temperature. […] Diluent: an aqueous solution of methanol-0.04% TFA (90:10, v:v) Mobile phase A: 0.04% aqueous solution of TFA Mobile phase B: Acetonitrile as mobile phase B. Crystal form F (hydrochloride): To each sample was added 18 mL of the diluent (to the sample at Day 0 was added 20 mL of the diluent). The mixture was subject to ultrasonic treatment for 2 min, and mixed homogeneously for use as the sample solution. Crystal forms K and L (methane sulfonate): To each sample was added 15 mL of the diluent. The mixture was subject to ultrasonic treatment for 2 min, and mixed homogeneously for use as the sample solution. NOTE: All the sample solutions were injected for analysis immediately after formulation. Once the HPLC system was stable, the sample was injected for analysis.

Another data set has as its system A549 Transplant Model. The data set can be described thus: Analysis of tumor growth inhibition (TGI), A549 transplant model. Format: in vivo. The note with it: mice, QD. The procedure:
The development and growth of tumors are evaluated by the relation between the tumor volume and time. The long axis (L) and the short axis (W) are measured with caliper twice per week. The tumor volume (TV) is calculated in accordance with the formula of (L×W^2)/2. TGI is calculated from the difference between the median tumor volume of mice of the solvent group and the median tumor volume of mice of the administration group, and expressed as a percentage relative to the median tumor volume of the solvent group.
It is calculated from the equation of: % TGH(Median Tumor Volume (Control Group) Median Tumor Volume (Administration Group))/Median Tumor Volume (Control Group))×100%
The initial statistical analysis is carried out by repeated variance analyses. Next, multiple comparisons are made by Scheffe psot hoc test method. A solvent (aqueous solution containing 0.5% of methylcellulose and 0.2% Tween) alone is used as negative control.

[3] abbreviates: FaSSIF (pH 6.48), listed as Hydrochloride Crystal form F.
Where [4] appears, read: Water (pH 6.33), listed as Hydrochloride Crystal form F.
Setting [5] is: 40° C./75% RH, Day 5, sum of impurities > 0.02%.
[6] abbreviates: 60° C., Day 5, sum of impurities > 0.02%.
The mark [7] stands for this setting: 92.5% RH, Day 5, sum of impurities > 0.02%.
Setting [8] is: -20° C., Day 0 (control per se), Table 17.
Where [9] appears, read: -20° C., Day 0, sum of impurities > 0.02%.
[10] abbreviates: FaSSIF (pH 6.48), listed as Methane sulfonate Crystal form K.
[11] abbreviates: Water (pH 6.33), listed as Methane sulfonate Crystal form K.

Converted amounts (≈) assume the structure as drawn.

Experimental for physchem: as §1, §2
Preparation of Linear Solution
as §3, §4, §5

In the data set “physchem”, `COc1cc2nccc(Oc3ccc(NC(=S)NC4CC4)c(Cl)c3F)c2cc1C(N)=O` [Crystal form F] yielded a solubility at 24 h of 70.1 µg/mL (≈ 152 µM). Besides, the “Solubility (ug/mL)_24 hr” value in data set [1] (setting [3]) was 64.32 µg/mL; in data set [1] (SGF (pH 1.72), methane sulfonate loaded to 10 mg/mL of free base, listed as Hydrochloride Crystal form F), 1217.07 µg/mL; in data set [1] (setting [4]), 319.05 µg/mL. Moreover, the “pH (24 hr)” value is 3.73 in data set [1] (setting [3]); 4.89 in data set [1] (FeSSIF (pH 4.89), listed as Hydrochloride Crystal form F); 1.80 in data set [1] (SGF (pH 1.72), listed as Hydrochloride Crystal form F); 2.56 in data set [1] (setting [4]). Besides, the “Content (%)” value in data set [2] (40° C./75% RH, Day 5, Table 17) is given as 100.5%; in data set [2] (60° C., Day 5, Table 17), 99.6%; in data set [2] (92.5% RH, Day 5, Table 17), 100.3%; in data set [2] (setting [8]) it was 100.0%. The “Total impurity (%)” value in data set [2] (setting [5]) amounted to 4.94%; in data set [2] (setting [6]), 4.86%; in data set [2] (setting [7]), 4.52%; in data set [2] (setting [9]) it was 4.66%.

For `COc1cc2nccc(Oc3ccc(NC(=S)NC4CC4)c(Cl)c3F)c2cc1C(N)=O` [Crystal form K], the “Solubility (ug/mL)_24 hr” value in data set [1] (setting [10]) is 38.04 µg/mL; in data set [1] (SGF (pH 1.72), methane sulfonate loaded to 10 mg/mL of free base, listed as Methane sulfonate Crystal form K), 6601.59 µg/mL; in data set [1] (setting [11]), 329.78 µg/mL. The “pH (24 hr)” value in data set [1] (setting [10]) was 3.92; in data set [1] (FeSSIF (pH 4.89), listed as Methane sulfonate Crystal form K), 4.88; in data set [1] (SGF (pH 1.72), listed as Methane sulfonate Crystal form K), 1.76; in data set [1] (setting [11]), 2.53. Besides, the “Content (%)” value in data set [2] (40° C./75% RH, Day 5, Table 17) was found to be 98.5%; in data set [2] (40° C./75% RH, Day 10, Table 17) it was 101.7%; in data set [2] (60° C., Day 5, Table 17), 94.6%; in data set [2] (60° C., Day 10, Table 17), 93.9%; in data set [2] (92.5% RH, Day 5, Table 17), 99.3%; in data set [2] (92.5% RH, Day 10, Table 17) it was 99.5%. Also, the “Content (%)” value in data set [2] (setting [8]) amounted to 100.0%. Besides, the “Total impurity (%)” value worked out at 5.32% in data set [2] (setting [5]); 5.62% in data set [2] (40° C./75% RH, Day 10, sum of impurities > 0.02%); 9.33% in data set [2] (setting [6]); 8.94% in data set [2] (60° C., Day 10, sum of impurities > 0.02%); 5.16% in data set [2] (setting [7]); 4.87% in data set [2] (92.5% RH, Day 10, sum of impurities > 0.02%). Moreover, the “Total impurity (%)” value in data set [2] (setting [9]) amounted to 5.20%.

Consider `COc1cc2nccc(Oc3ccc(NC(=S)NC4CC4)c(Cl)c3F)c2cc1C(N)=O` [Crystal form A], for which the “Solubility (ug/mL)_24 hr” value in data set [1] (FaSSIF (pH 6.48)) is 2.62 µg/mL; in data set [1] (SGF (pH 1.72), methane sulfonate loaded to 10 mg/mL of free base), 692.77 µg/mL; in data set [1] (Water (pH 6.33)), 2.38 µg/mL. Also, the “pH (24 hr)” value in data set [1] (FaSSIF (pH 6.48)) amounted to 6.18; in data set [1] (FeSSIF (pH 4.89)), 4.98; in data set [1] (SGF (pH 1.72)), 1.97; in data set [1] (Water (pH 6.33)), 7.16.

Regarding `COc1cc2nccc(Oc3ccc(NC(=S)NC4CC4)c(Cl)c3F)c2cc1C(N)=O` [Crystal form L], the “TGI % (Last Administration)” value was found to be 82% with A549 Transplant Model (50 mg/kg), 90% in the data set on A549 Transplant Model (100 mg/kg) and 91% in the data set with A549 Transplant Model (200 mg/kg). Also, the “Content (%)” value came to 99.4% in data set [2] (40° C./75% RH, Day 30, Table 18); 99.9% in data set [2] (40° C./75% RH, Day 60, Table 18); 97.5% in data set [2] (40° C./75% RH, Day 90, Table 18); 97.8% in data set [2] (60° C., Day 5, Table 18); 97.4% in data set [2] (60° C., Day 10, Table 18); 97.1% in data set [2] (60° C., Day 30, Table 18). Moreover, the “Content (%)” value in data set [2] (92.5% RH, Day 5, Table 18) is on record as 98.0%; in data set [2] (92.5% RH, Day 10, Table 18) it was 97.6%; in data set [2] (92.5% RH, Day 30, Table 18), 100.2%; in data set [2] (-20° C., Day 0, Table 18), 97.5%. Besides, the “Total impurity (%)” value in data set [2] (40° C./75% RH, Day 30, sum of impurities > 0.05%) is 0.9%; in data set [2] (40° C./75% RH, Day 60, sum of impurities > 0.05%), 0.9%; in data set [2] (40° C./75% RH, Day 90, sum of impurities > 0.05%) it was 1.0%; in data set [2] (60° C., Day 5, sum of impurities > 0.05%), 0.8%; in data set [2] (60° C., Day 10, sum of impurities > 0.05%), 0.8%; in data set [2] (60° C., Day 30, sum of impurities > 0.05%), 0.8%. Further, the “Total impurity (%)” value in data set [2] (92.5% RH, Day 5, sum of impurities > 0.05%) turned out to be 0.8%; in data set [2] (92.5% RH, Day 10, sum of impurities > 0.05%), 0.8%; in data set [2] (92.5% RH, Day 30, sum of impurities > 0.05%), 0.8%; in data set [2] (-20° C., Day 0, sum of impurities > 0.05%), 0.8%.

As for `COc1cc2nccc(Oc3ccc(NC(=S)NC4CC4)c(Cl)c3F)c2cc1C(N)=O` [methane sulfonate], in data set [1] (SGF, listed as methanesulfonate salt), the “Solubility, conclusion in words” value is reported as “good solubility”.
